Data from patent US20230002367A1, “BIFUNCTIONAL COMPOUNDS” (Hoffmann-La Roche Inc., priority 2019, published 2023).

Biological target: T1, SMARCA2 (Homo sapiens, UniProt P51531)
T1 construct: endogenous in cells
Test: SMARCA2 HiBiT degradation assay (cellular)
Assay type: cell-based
Conditions: for Emax: A549, Emax = amount of residual protein remaining in the cell following compound treatment; for DC50: SMARCA2 HiBiT cells, luminescence readout, 11-point titration from 10 μM, 6 hours or 16 hours, read-out: HiBit A549 SMARCA2 IP

T1 sequence (P51531 whole entry): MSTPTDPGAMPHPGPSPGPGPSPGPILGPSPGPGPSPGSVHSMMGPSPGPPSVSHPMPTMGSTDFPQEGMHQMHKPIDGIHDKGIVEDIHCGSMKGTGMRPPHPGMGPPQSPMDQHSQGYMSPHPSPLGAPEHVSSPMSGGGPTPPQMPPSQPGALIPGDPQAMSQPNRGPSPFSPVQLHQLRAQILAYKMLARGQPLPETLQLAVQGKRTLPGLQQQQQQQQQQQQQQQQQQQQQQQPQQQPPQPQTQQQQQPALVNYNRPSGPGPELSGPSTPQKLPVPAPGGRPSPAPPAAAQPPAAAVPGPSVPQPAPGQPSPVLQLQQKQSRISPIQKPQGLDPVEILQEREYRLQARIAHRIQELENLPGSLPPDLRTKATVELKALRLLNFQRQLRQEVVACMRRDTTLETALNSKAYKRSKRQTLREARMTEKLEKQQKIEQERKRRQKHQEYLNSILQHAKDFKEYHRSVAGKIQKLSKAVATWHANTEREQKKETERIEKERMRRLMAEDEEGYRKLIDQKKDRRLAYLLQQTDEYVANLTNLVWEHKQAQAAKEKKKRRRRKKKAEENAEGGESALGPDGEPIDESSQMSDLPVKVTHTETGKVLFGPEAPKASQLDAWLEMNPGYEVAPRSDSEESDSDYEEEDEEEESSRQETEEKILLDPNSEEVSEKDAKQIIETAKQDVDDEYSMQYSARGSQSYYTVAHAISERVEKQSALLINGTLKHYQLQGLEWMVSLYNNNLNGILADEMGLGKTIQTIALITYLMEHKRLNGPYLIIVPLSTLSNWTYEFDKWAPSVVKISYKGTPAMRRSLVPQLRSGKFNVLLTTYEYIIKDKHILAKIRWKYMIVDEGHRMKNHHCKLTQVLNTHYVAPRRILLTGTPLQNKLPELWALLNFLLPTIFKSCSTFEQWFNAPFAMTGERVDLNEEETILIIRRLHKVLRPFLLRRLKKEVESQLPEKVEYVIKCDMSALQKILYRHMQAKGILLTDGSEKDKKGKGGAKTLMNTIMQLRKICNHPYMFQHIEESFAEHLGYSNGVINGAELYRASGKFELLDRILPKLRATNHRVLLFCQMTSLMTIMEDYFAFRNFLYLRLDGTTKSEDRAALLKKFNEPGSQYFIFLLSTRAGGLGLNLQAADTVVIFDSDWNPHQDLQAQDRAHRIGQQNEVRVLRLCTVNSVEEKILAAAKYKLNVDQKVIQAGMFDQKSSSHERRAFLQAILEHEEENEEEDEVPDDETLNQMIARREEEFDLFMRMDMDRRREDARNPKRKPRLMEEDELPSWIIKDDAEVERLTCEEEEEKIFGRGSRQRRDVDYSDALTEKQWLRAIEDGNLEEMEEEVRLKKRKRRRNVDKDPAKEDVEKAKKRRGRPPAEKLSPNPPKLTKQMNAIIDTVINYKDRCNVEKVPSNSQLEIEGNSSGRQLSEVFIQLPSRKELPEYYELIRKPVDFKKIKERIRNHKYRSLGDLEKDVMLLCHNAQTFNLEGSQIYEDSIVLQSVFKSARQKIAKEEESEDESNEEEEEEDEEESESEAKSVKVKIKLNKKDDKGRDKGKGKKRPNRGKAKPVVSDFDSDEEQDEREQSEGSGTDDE

| Structure (SMILES) | Emax [%] | DC50 [nM] |
| --- | --- | --- |
| Cc1ncsc1-c1ccc(CNC(=O)[C@@H]2C[C@@H](O)CN2C(=O)[C@@H](NC(=O)CCCCCCCCC(=O)N2CCOC3(CCN(c4cc(-c5ccccc5O)nnc4N)CC3)C2)C(C)(C)C)cc1 [Example 12, (2S,4R)-1-[(2S)-2-[[10-[9-[3-amino-6-(2-hydroxyphenyl)pyridazin-4-yl]-1-oxa-4,9-diazaspiro[5.5]undecan-4-yl]-10-oxo-decanoyl]amino]-3,3-dimethyl-butanoyl]-4-hydroxy-N-[[4-(4-methylthiazol-5-yl)phenyl]methyl]pyrrolidine-2-carboxamide] | 43 | 2460 |
| Cc1ncsc1-c1ccc(CNC(=O)[C@@H]2C[C@H](O)CN2C(=O)[C@@H](NC(=O)CCCCCCCC(=O)N2CCC(Cc3cccc(N4C5CCC4CN(c4cc(-c6ccccc6O)nnc4N)C5)c3)CC2)C(C)(C)C)cc1 [Example 13, (2S,4S)-1-[(2S)-2-[[9-[4-[[3-[3-[3-amino-6-(2-hydroxyphenyl)pyridazin-4-yl]-3,8-diazabicyclo[3.2.1]octan-8-yl]phenyl]methyl]-1-piperidyl]-9-oxo-nonanoyl]amino]-3,3-dimethyl-butanoyl]-4-hydroxy-N-[[4-(4-methylthiazol-5-yl)phenyl]methyl]pyrrolidine-2-carboxamide] | 28 | 954 |
| Cc1ncsc1-c1ccc(CNC(=O)[C@@H]2C[C@H](O)CN2C(=O)[C@@H](NC(=O)CCCCCC(=O)N2CCC(Cc3cccc(N4C5CCC4CN(c4cc(-c6ccccc6O)nnc4N)C5)c3)CC2)C(C)(C)C)cc1 [Example 14, (2S,4S)-1-[(2S)-2-[[7-[4-[[3-[3-[3-amino-6-(2-hydroxyphenyl)pyridazin-4-yl]-3,8-diazabicyclo[3.2.1]octan-8-yl]phenyl]methyl]-1-piperidyl]-7-oxo-heptanoyl]amino]-3,3-dimethyl-butanoyl]-4-hydroxy-N-[[4-(4-methylthiazol-5-yl)phenyl]methyl]pyrrolidine-2-carboxamide] | 38 | 995 |
| Cc1ncsc1-c1ccc(CNC(=O)[C@@H]2C[C@H](O)CN2C(=O)[C@@H](NC(=O)CCCCCCCCCC(=O)N2CCC(Cc3cccc(N4C5CCC4CN(c4cc(-c6ccccc6O)nnc4N)C5)c3)CC2)C(C)(C)C)cc1 [Example 15, (2S,4S)-1-[(2S)-2-[[11-[4-[[3-[3-[3-amino-6-(2-hydroxyphenyl)pyridazin-4-yl]-3,8-diazabicyclo[3.2.1]octan-8-yl]phenyl]methyl]-1-piperidyl]-11-oxo-undecanoyl]amino]-3,3-dimethyl-butanoyl]-4-hydroxy-N-[[4-(4-methylthiazol-5-yl)phenyl]methyl]pyrrolidine-2-carboxamide] | 24 | 487 |
| Cc1ncsc1-c1ccc(CNC(=O)[C@@H]2C[C@@H](O)CN2C(=O)[C@@H](NC(=O)CCCCCCCCC(=O)N2CCN(c3cc(-c4ccccc4O)nnc3N)CC23CC3)C(C)(C)C)cc1 [Example 16, (2S,4R)-1-[(2S)-2-[[10-[7-[3-amino-6-(2-hydroxyphenyl)pyridazin-4-yl]-4,7-diazaspiro[2.5]octan-4-yl]-10-oxo-decanoyl]amino]-3,3-dimethyl-butanoyl]-4-hydroxy-N-[[4-(4-methylthiazol-5-yl)phenyl]methyl]pyrrolidine-2-carboxamide] | 33 | 872 |
| Cc1ncsc1-c1ccc(CNC(=O)[C@@H]2C[C@@H](O)CN2C(=O)[C@@H](NC(=O)CCCCCCCCC(=O)N2CC=C(c3cc(-c4ccccc4O)nnc3N)CC2)C(C)(C)C)cc1 [Example 17, (2S,4R)-1-[(2S)-2-[[10-[4-[3-amino-6-(2-hydroxyphenyl)pyridazin-4-yl]-3,6-dihydro-2H-pyridin-1-yl]-10-oxo-decanoyl]amino]-3,3-dimethyl-butanoyl]-4-hydroxy-N-[[4-(4-methylthiazol-5-yl)phenyl]methyl]pyrrolidine-2-carboxamide] | 50 | 2820 |
| Cc1ncsc1-c1ccc(CNC(=O)[C@@H]2C[C@@H](O)CN2C(=O)[C@@H](NC(=O)CCCCCCCCCC(=O)N2CCN(C(=O)c3cccc(CN4C5CCC4CN(c4cc(-c6ccccc6O)nnc4N)C5)c3)CC2)C(C)(C)C)cc1 [Example 18, (2S,4R)-1-[(2S)-2-[[11-[4-[3-[[3-[3-amino-6-(2-hydroxyphenyl)pyridazin-4-yl]-3,8-diazabicyclo[3.2.1]octan-8-yl]methyl]benzoyl]piperazin-1-yl]-11-oxo-undecanoyl]amino]-3,3-dimethyl-butanoyl]-4-hydroxy-N-[[4-(4-methylthiazol-5-yl)phenyl]methyl]pyrrolidine-2-carboxamide] | 63 | 848 |
| Cc1ncsc1-c1ccc(CNC(=O)[C@@H]2C[C@@H](O)CN2C(=O)[C@@H](NC(=O)CCCCCCCCC(=O)N2C3CCCC2CN(c2cc(-c4ccccc4O)nnc2N)C3)C(C)(C)C)cc1 [Example 19, (2S,4R)-1-[(2S)-2-[[10-[3-[3-Amino-6-(2-hydroxyphenyl)pyridazin-4-yl]-3,9-diazabicyclo[3.3.1]nonan-9-yl]-10-oxo-decanoyl]amino]-3,3-dimethyl-butanoyl]-4-hydroxy-N-[[4-(4-methylthiazol-5-yl)phenyl]methyl]pyrrolidine-2-carboxamide] | 18 | 754 |
| Cc1ncsc1-c1ccc(CNC(=O)[C@@H]2C[C@@H](O)CN2C(=O)[C@H](NC(=O)CCCCCCCCCOc2cccc(N3C4CCC3CN(c3cc(-c5ccccc5O)nnc3N)C4)c2)C(C)(C)C)cc1 [Example 20, (2S,4R)-1-[(2R)-2-[10-[3-[3-[3-amino-6-(2-hydroxyphenyl)pyridazin-4-yl]-3,8-diazabicyclo[3.2.1]octan-8-yl]phenoxy]decanoylamino]-3,3-dimethyl-butanoyl]-4-hydroxy-N-[[4-(4-methylthiazol-5-yl)phenyl]methyl]pyrrolidine-2-carboxamide] | 33 | 313 |
| Cc1ncsc1-c1ccc(CNC(=O)[C@@H]2C[C@@H](O)CN2C(=O)[C@@H](NC(=O)CCCCCCCCC(=O)N2CCN(Cc3cccc(CN4C5CCC4CN(c4cc(-c6ccccc6O)nnc4N)C5)c3)CC2)C(C)(C)C)cc1 [Example 29, (2S,4R)-1-[(2S)-2-[[10-[4-[[3-[[3-[3-amino-6-(2-hydroxyphenyl)pyridazin-4-yl]-3,8-diazabicyclo[3.2.1]octan-8-yl]methyl]phenyl]methyl]piperazin-1-yl]-10-oxo-decanoyl]amino]-3,3-dimethyl-butanoyl]-4-hydroxy-N-[[4-(4-methylthiazol-5-yl)phenyl]methyl]pyrrolidine-2-carboxamide] | 30 | 1110 |
| Cc1ncsc1-c1ccc(CNC(=O)[C@@H]2C[C@@H](O)CN2C(=O)[C@H](C(C)C)N2Cc3ccccc3C2=O)c(OCCCCCCCCCCC(=O)N2CCN(CCOc3cccc(N4C5CCC4CN(c4cc(-c6ccccc6O)nnc4N)C5)c3)CC2)c1 [Example 30, (2S,4R)-N-[[2-[11-[4-[2-[3-[3-[3-amino-6-(2-hydroxyphenyl)pyridazin-4-yl]-3,8-diazabicyclo[3.2.1]octan-8-yl]phenoxy]ethyl]piperazin-1-yl]-11-oxo-undecoxy]-4-(4-methylthiazol-5-yl)phenyl]methyl]-4-hydroxy-1-[(2S)-3-methyl-2-(1-oxoisoindolin-2-yl)butanoyl]pyrrolidine-2-carboxamide] | 65 | 1160 |
| Cc1ncsc1-c1ccc(CNC(=O)[C@@H]2C[C@@H](O)CN2C(=O)[C@@H](NC(=O)CCCCCCCCC(=O)N2CCN(CCOc3cccc(C#Cc4cc(-c5ccccc5O)nnc4N)c3)CC2)C(C)(C)C)cc1 [Example 35, (2S,4R)-1-[(2S)-2-[[10-[4-[2-[3-[2-[3-amino-6-(2-hydroxyphenyl)pyridazin-4-yl]ethynyl]phenoxy]ethyl]piperazin-1-yl]-10-oxo-decanoyl]amino]-3,3-dimethyl-butanoyl]-4-hydroxy-N-[[4-(4-methylthiazol-5-yl)phenyl]methyl]pyrrolidine-2-carboxamide] | 39 | 952 |
| Cc1ncsc1-c1ccc(CNC(=O)[C@@H]2C[C@@H](O)CN2C(=O)[C@@H](NC(=O)CCCCCCCCCCC(=O)N2CCN(CCOc3cccc(C#Cc4cc(-c5ccccc5O)nnc4N)c3)CC2)C(C)(C)C)cc1 [Example 36, (2S,4R)-1-[(2S)-2-[[12-[4-[2-[3-[2-[3-amino-6-(2-hydroxyphenyl)pyridazin-4-yl]ethynyl]phenoxy]ethyl]piperazin-1-yl]-12-oxo-dodecanoyl]amino]-3,3-dimethyl-butanoyl]-4-hydroxy-N-[[4-(4-methylthiazol-5-yl)phenyl]methyl]pyrrolidine-2-carboxamide] | 49 | 838 |
| Cc1ncsc1-c1ccc([C@H](C)NC(=O)[C@@H]2C[C@@H](O)CN2C(=O)[C@@H](NC(=O)CCCCCCCCCC(=O)N2CCN(CCOc3cccc(N4C5CCC4CN(c4cc(-c6ccccc6O)nnc4N)C5)c3)CC2)C(C)(C)C)cc1 [Example 37, (2S,4R)-1-[(2S)-2-[[11-[4-[2-[3-[3-[3-amino-6-(2-hydroxyphenyl)pyridazin-4-yl]-3,8-diazabicyclo[3.2.1]octan-8-yl]phenoxy]ethyl]piperazin-1-yl]-11-oxo-undecanoyl]amino]-3,3-dimethyl-butanoyl]-4-hydroxy-N-[(1S)-1-[4-(4-methylthiazol-5-yl)phenyl]ethyl]pyrrolidine-2-carboxamide] | 29 | 73 |
| Cc1ncsc1-c1ccc([C@H](C)NC(=O)[C@@H]2C[C@@H](O)CN2C(=O)[C@@H](NC(=O)CCC(=O)N2CCOC3(CCN(c4cc(-c5ccccc5O)nnc4N)CC3)C2)C(C)(C)C)cc1 [Example 42, (2S,4R)-1-[(2S)-2-[[4-[9-[3-amino-6-(2-hydroxyphenyl)pyridazin-4-yl]-1-oxa-4,9-diazaspiro[5.5]undecan-4-yl]-4-oxo-butanoyl]amino]-3,3-dimethyl-butanoyl]-4-hydroxy-N-[(1S)-1-[4-(4-methylthiazol-5-yl)phenyl]ethyl]pyrrolidine-2-carboxamide] | 71 | 561 |
